Patent publication US7507803B2, “Optimized multi-epitope constructs and uses thereof” (priority 2002, dated 2009)
Read-outs that look alike come from different tables or passages of the source. Ends that are not written are not given here.

Experiments:
[1] = system: HLA supertype alleles; assay type: binding, human
[2] = system: H2^bxd mice; assay: CTL response after peptide/IFA immunization, in situ ELISA; assay type: in vivo, mouse; conditions: peptide/IFA immunization of H2^bxd mice
[3] = target: HLA-A*2402 (Homo sapiens, UniProt P04439, D101N/D140Y/D185E/E176V/E190D/F33S/G103R/G107R/I119L/I121M/I306V/K335N/L105A/L180Q/L300P/N151K/N90K/Q86E/Q94H/R106L/R138H/R89G/T104I/T345S/V100E/W191G/Y123F); assay: HLA class I peptide binding assay (purified HLA, IC50)
[4] = system: HLA-A*0201/K^b transgenic mice; assay: CTL response after DNA immunization, 51Cr release assay (lytic units); assay type: in vivo, mouse
Text: However, the magnitude and the frequency of the responses varied greatly between epitopes.
This assay to measure CTL activity is well known in the art. […] The LU calculation allows quantifying responses and thus readily comparing different experimental values.

[5] = system: H2^bxd mice; assay: HTL responses, primary IFN-γ ELISPOT on CD4 T cells; assay type: in vivo, mouse
Protocol: H2^bxd mice were immunized intramuscularly with 100 μg of a vaccine HBV HTL epigene construct or the individual peptides emulsified in CFA. Eleven days after the immunization CD4 T cells were purified from splenocytes and HTL responses were measured using a primary IFN-γ ELISPOT assay.
Eleven days after immunization, no booster immunizations were administered, CD4 T cells were purified from the spleen, and peptide specific HTL responses were measured in a primary γ-IFN ELISPOT assay.
The immunogenicity of the HTL epitopes was also characterized using H2^bxd mice.
This construct was tested for immunogenicity in H2^bxd mice (FIG. 28B), measuring IFN-γ production by CD4+ T-lymphocytes using an ELISPOT assay.

[6] = A1 or A24 supertype, three related alleles
[7] = A2, A3 or B7 supertype, five most common members

CC(C)C[C@H](NC(=O)[C@H](C)NC(=O)[C@H](CO)NC(=O)[C@H](C)NC(=O)[C@@H](NC(=O)[C@H](CC(=O)O)NC(=O)[C@H](CC(C)C)NC(=O)[C@H](CC(C)C)NC(=O)[C@@H](N)CC(=O)O)[C@@H](C)O)C(=O)N[C@@H](Cc1ccc(O)cc1)C(=O)O [core 419]
XRN (number of supertype alleles bound ≦500 nM) [1, 6]: 3

CC[C@H](C)[C@H](NC(=O)[C@@H](NC(=O)[C@H](Cc1ccccc1)NC(=O)[C@H](CCCNC(=N)N)NC(=O)[C@H](CCCNC(=N)N)NC(=O)[C@H](CC(C)C)NC(=O)[C@H](CS)NC(=O)[C@H](CCSC)NC(=O)[C@H](Cc1c[nH]c2ccccc12)NC(=O)[C@@H](N)CCCNC(=N)N)[C@@H](C)CC)C(=O)O [env 236]
Murine Immunogenicity (SU) [2]: 339.6 SU
XRN (number of supertype alleles bound ≦500 nM) [1, 6]: 3

CSCC[C@H](NC(=O)[C@H](CCSC)NC(=O)[C@@H](N)Cc1c[nH]c2ccccc12)C(=O)N[C@@H](Cc1c[nH]c2ccccc12)C(=O)N[C@@H](Cc1ccc(O)cc1)C(=O)N[C@@H](Cc1c[nH]c2ccccc12)C(=O)NCC(=O)N1CCC[C@H]1C(=O)N[C@@H](CO)C(=O)N[C@@H](CC(C)C)C(=O)N[C@@H](Cc1ccc(O)cc1)C(=O)O [env 359]
XRN (number of supertype alleles bound ≦500 nM) [1, 6]: 3

CC[C@H](C)[C@H](NC(=O)[C@@H]1CCCN1C(=O)[C@H](CC(C)C)NC(=O)[C@@H](N)CC(C)C)C(=O)N[C@@H](Cc1ccccc1)C(=O)N[C@@H](Cc1ccccc1)C(=O)N[C@@H](CS)C(=O)N[C@@H](CC(C)C)C(=O)N[C@@H](Cc1c[nH]c2ccccc12)C(=O)N[C@H](C(=O)O)C(C)C [env 378]
XRN (number of supertype alleles bound ≦500 nM) [1, 7]: 1

C[C@H](N)C(=O)N[C@@H](CO)C(=O)N[C@@H](Cc1ccccc1)C(=O)N[C@@H](CS)C(=O)NCC(=O)N[C@@H](CO)C(=O)N1CCC[C@H]1C(=O)N[C@@H](Cc1ccc(O)cc1)C(=O)O [pol 166]
XRN (number of supertype alleles bound ≦500 nM) [1, 6]: 3

N[C@@H](CO)C(=O)N[C@@H](Cc1ccccc1)C(=O)N[C@@H](CS)C(=O)NCC(=O)N[C@@H](CO)C(=O)N1CCC[C@H]1C(=O)N[C@@H](Cc1ccc(O)cc1)C(=O)N[C@@H](CO)C(=O)N[C@@H](Cc1c[nH]c2ccccc12)C(=O)O [pol 167]
IC50 [3]: 0.146 µM
XRN (number of supertype alleles bound ≦500 nM) [1, 6]: 3

CC(C)[C@H](NC(=O)CNC(=O)CNC(=O)[C@@H](NC(=O)[C@@H](NC(=O)[C@H](CCCNC(=N)N)NC(=O)[C@H](C)NC(=O)[C@@H]1CCCN1C(=O)[C@@H](N)[C@@H](C)O)C(C)C)[C@@H](C)O)C(=O)N[C@@H](Cc1ccccc1)C(=O)O [pol 354]
XRN (number of supertype alleles bound ≦500 nM) [1, 7]: 2

CC(C)C[C@H](NC(=O)[C@H](CC(N)=O)NC(=O)[C@@H]1CCCN1C(=O)[C@@H](NC(=O)[C@H](C)NC(=O)[C@H](Cc1ccccc1)NC(=O)[C@H](CCCCN)NC(=O)[C@@H]1CCCN1C(=O)[C@H](Cc1c[nH]c2ccccc12)NC(=O)[C@@H](N)CO)C(C)C)C(=O)O [pol 392]
Murine Immunogenicity (SU) [2]: 261.0 SU
XRN (number of supertype alleles bound ≦500 nM) [1, 6]: 2

CC(C)C[C@H](NC(=O)[C@H](CO)NC(=O)[C@@H](N)CC(C)C)C(=O)N[C@@H](CC(=O)O)C(=O)N[C@H](C(=O)N[C@@H](CO)C(=O)N[C@@H](C)C(=O)N[C@@H](C)C(=O)N[C@@H](Cc1ccccc1)C(=O)N[C@@H](Cc1ccc(O)cc1)C(=O)O)C(C)C [pol 415]
XRN (number of supertype alleles bound ≦500 nM) [1, 6]: 3

CC(C)C[C@H](NC(=O)[C@H](CCCNC(=N)N)NC(=O)[C@H](C)NC(=O)[C@@H](NC(=O)[C@H](Cc1ccc(O)cc1)NC(=O)[C@H](CCCNC(=N)N)NC(=O)[C@H](CO)NC(=O)[C@H](CC(C)C)NC(=O)CN)C(C)C)C(=O)O [pol 455]
XRN (number of supertype alleles bound ≦500 nM) [1, 7]: 3

CC(C)C[C@H](NC(=O)[C@H](CS)NC(=O)[C@H](Cc1c[nH]cn1)NC(=O)[C@@H]1CCCN1C(=O)[C@H](Cc1ccccc1)NC(=O)[C@H](C)N)C(=O)N[C@@H](C)C(=O)N[C@@H](Cc1ccccc1)C(=O)O [pol 529]
XRN (number of supertype alleles bound ≦500 nM) [1, 6]: 3

CC[C@H](C)[C@H](NC(=O)CNC(=O)[C@H](CC(C)C)NC(=O)[C@H](CO)NC(=O)[C@H](CC(C)C)NC(=O)[C@H](CC(C)C)NC(=O)[C@@H](N)Cc1ccccc1)C(=O)N[C@@H](Cc1c[nH]cn1)C(=O)N[C@@H](CC(C)C)C(=O)O [pol 562]
XRN (number of supertype alleles bound ≦500 nM) [1, 7]: 3

CSCC[C@H](NC(=O)[C@H](CC(C)C)NC(=O)[C@H](C)NC(=O)[C@@H]1CCCN1C(=O)[C@H](Cc1ccc(O)cc1)NC(=O)CN)C(=O)N1CCC[C@H]1C(=O)N[C@@H](CC(C)C)C(=O)N[C@@H](Cc1ccc(O)cc1)C(=O)O [pol 639]
IC50 [3]: 0.28 µM
XRN (number of supertype alleles bound ≦500 nM) [1, 6]: 2

CC[C@H](C)[C@H](NC(=O)[C@H](CS)NC(=O)[C@H](C)NC(=O)[C@H](Cc1ccc(O)cc1)NC(=O)[C@H](CC(C)C)NC(=O)[C@@H]1CCCN1C(=O)[C@H](CCSC)NC(=O)[C@H](CC(C)C)NC(=O)[C@H](C)N)C(=O)O [pol 642]
XRN (number of supertype alleles bound ≦500 nM) [1]: 4

CC(C)C[C@H](NC(=O)[C@H](C)NC(=O)[C@H](CO)NC(=O)[C@@H]1CCCN1C(=O)[C@@H](NC(=O)[C@H](Cc1ccc(O)cc1)NC(=O)[C@@H](NC(=O)[C@H](Cc1ccccc1)NC(=O)[C@H](CO)NC(=O)[C@@H](NC(=O)CN)[C@@H](C)O)C(C)C)C(C)C)C(=O)N[C@@H](CC(N)=O)C(=O)N1CCC[C@H]1C(=O)N[C@@H](C)C(=O)N[C@@H](CC(=O)O)C(=O)O [pol 774]
HIV-FT Immunogenicity magnitude ([4]; 100 μg HIV-FT plasmid DNA i.m., CTL response to the epitope): 0 LU
Frequency (fraction of independent cultures yielding positive responses) ([4]; CTL response to the epitope after immunization with epigene construct HIV 1 (20 mer)): 0/8
HIV-FT Immunogenicity frequency (number cultures >2LU/total tested) ([4]; HIV-FT DNA): 0/8
HIV-FT Immunogenicity frequency of positive cultures ([4]; HIV-FT DNA, positive = >2LU): 0%
Frequency (fraction of independent cultures yielding positive responses) ([4]; epigene construct HIV 1.1 (10 mer)): 0/4

LWFHISCLTF [core 101]
IC50 [3]: 0.0067 µM
Murine Immunogenicity (SU) [2]: 0.0 SU
XRN (number of supertype alleles bound ≦500 nM) [1, 6]: 3

RFSWLSLLVPF [env 332]
IC50 [3]: 0.012 µM
Murine Immunogenicity (SU) [2]: 0.0 SU
XRN (number of supertype alleles bound ≦500 nM) [1, 6]: 2

B1: HBV HTL: epigene construct encoding 16 HBV HTL epitopes with GPGPG spacers, SEQ ID NO: 73/74 (nucleic acid)
DNA: ATGGGAACTTCTTTTGTGTATGTCCCTTCCGCTCTGAACCCAGCAGACGGACCCGGGCCTGGCCTGTGCCAGGTCTTCGCCGACGCAACTCCCACAGGGTGGGGGCTGGGGCCAGGACCAGGCAGGCACTACCTGCATACTCTGTGGAAGGCAGGAATCCTCTATAAAGGGCCCGGCCCAGGCCCTCACCACACCGCCCTGAGGCAGGCCATCCTGTGCTGGGGGGAGCTCATGACCCTGGCCGGACCTGGACCCGGGGAGAGCAGACTGGTGGTGGATTTCAGCCAATTCAGCAGAGGAAACGGACCCGGCCCTGGGCCTTTTCTGCTGGCTCAGTTTACATCTGCTATTTGTTCTGTGGTCGGCCCCGGGCCCGGACTCGTGCCTTTCGTGCAGTGGTTCGTGGGACTGTCCCCTACAGTCGGGCCCGGCCCAGGGCTGCATCTGTACTCCCACCCAATCATCCTCGGCTTCCGCAAGATTGGACCCGGCCCAGGCTCCAGCAATCTCTCCTGGCTCTCTCTGGACGTGTCTGCCGCCTTTGGCCCTGGACCAGGCCTGCAAAGCCTGACTAATCTGCTCAGCAGCAACCTGTCCTGGCTGGGACCTGGCCCAGGGGCTGGCTTCTTTCTGCTCACCCGGATTCTCACAATTCCCCAGTCCGGACCAGGACCAGGAGTCAGTTTCGGGGTGTGGATCAGGACCCCTCCTGCTTATAGACCACCCAATGCTCCAATCGGCCCCGGCCCTGGCGTCGGGCCACTGACCGTGAATGAGAAGCGCCGGCTGAAGCTGATCGGCCCTGGCCCTGGCAAGCAGTGCTTTCGCAAACTGCCCGTGAACAGACCTATTGATTGGGGCCCCGGCCCTGGAGCAGCCAACTGGATTCTCAGGGGAACAAGCTTCGTCTACGTGCCCGGGCCCGGACCAGGGAAGCAGGCTTTTACCTTCTCTCCCACTTACAAGGCCTTCCTCTGTGGGCCAGGCCCCGGCGCCAAGTTTGTGGCAGCATGGACCCTCAAAGCCGCTGCCTGA
modifications: Hepatitis B virus
Epitopes with responses as vigorous as those induced by peptides emulsified in CFA (%) ([5]; 100 μg i.m., IFN-γ production by CD4+ T-lymphocytes): 50%
Epitopes that failed to induce a response ([5]; mouse, in vivo): two
Epitopes with responses as vigorous as those induced by peptides emulsified in CFA (fraction of epitopes tested) ([5]; mouse, in vivo): 6/12
